The values that follow come from patent US10758534B2 (Vertex Pharmaceuticals Incorporated, priority 2014, dated 2020).

The target in this experiment is T1, F508del (Homo sapiens, UniProt P13569, DEL508-508).
T1 construct: expressed in transfected cells
T1 sequence (P13569 with tags, fused parts or gaps DEL508-508): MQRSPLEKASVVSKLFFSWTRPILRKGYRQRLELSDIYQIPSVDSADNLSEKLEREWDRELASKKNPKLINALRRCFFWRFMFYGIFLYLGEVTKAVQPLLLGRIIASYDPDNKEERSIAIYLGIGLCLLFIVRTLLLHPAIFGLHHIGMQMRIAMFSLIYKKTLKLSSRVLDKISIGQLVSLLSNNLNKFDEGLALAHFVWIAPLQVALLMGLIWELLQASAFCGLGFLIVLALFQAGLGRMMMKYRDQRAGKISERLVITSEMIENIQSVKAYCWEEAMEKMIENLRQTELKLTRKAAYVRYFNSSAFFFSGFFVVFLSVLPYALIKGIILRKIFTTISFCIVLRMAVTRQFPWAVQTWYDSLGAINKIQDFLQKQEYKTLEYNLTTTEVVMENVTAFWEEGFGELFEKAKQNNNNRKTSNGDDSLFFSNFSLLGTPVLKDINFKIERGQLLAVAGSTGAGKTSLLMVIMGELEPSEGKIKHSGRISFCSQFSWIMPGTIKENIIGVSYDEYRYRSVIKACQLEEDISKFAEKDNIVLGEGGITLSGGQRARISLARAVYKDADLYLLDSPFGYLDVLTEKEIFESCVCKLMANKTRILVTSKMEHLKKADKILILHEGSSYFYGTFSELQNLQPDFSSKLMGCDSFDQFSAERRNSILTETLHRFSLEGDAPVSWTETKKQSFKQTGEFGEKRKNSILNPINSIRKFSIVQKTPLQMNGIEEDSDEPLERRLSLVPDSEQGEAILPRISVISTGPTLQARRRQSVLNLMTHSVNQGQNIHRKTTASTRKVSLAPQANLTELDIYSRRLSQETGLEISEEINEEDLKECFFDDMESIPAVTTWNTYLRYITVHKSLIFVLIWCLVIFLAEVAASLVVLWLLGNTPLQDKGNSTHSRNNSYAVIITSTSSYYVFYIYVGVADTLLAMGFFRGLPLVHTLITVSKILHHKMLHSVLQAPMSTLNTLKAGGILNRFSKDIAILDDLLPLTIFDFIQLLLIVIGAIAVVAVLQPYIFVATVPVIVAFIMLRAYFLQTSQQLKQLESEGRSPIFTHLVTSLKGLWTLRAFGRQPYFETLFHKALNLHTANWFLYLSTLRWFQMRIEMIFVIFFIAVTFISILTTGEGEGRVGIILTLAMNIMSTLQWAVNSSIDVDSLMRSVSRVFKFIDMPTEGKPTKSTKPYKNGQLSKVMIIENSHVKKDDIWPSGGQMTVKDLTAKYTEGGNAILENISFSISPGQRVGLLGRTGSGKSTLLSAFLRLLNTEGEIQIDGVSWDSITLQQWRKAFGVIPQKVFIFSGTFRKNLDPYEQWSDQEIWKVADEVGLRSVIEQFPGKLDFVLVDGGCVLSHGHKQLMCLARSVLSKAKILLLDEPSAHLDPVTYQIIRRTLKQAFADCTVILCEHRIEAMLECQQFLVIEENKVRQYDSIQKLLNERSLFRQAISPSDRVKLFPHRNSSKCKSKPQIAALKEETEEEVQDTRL
Nature of the experiment: Protocol 1: membrane potential optical assay (FLIPR III, voltage sensing dye), identification of potentiator compounds. It is filed as cell-based. To be noted: Table 3, compounds of Table 1. The gist of the method:
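NIH 3T3 fibroblasts stably expressing F508del were cultured at 27° C for 24 hrs for temperature correction, then treated with compounds or DMSO and loaded with a voltage-sensing redistribution dye. Forskolin added with a Cl⁻ gradient activated the channel; membrane-potential fluorescence on FLIPR III reported increased gating.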
In the case of `CC(C)Oc1ccc(-c2ccc(C(=O)NS(=O)(=O)c3cccc(N)n3)c(N3C[C@@H](C)CC3(C)C)n2)cn1` [Compound 811, N-[(6-amino-2-pyridyl)sulfonyl]-6-(6-isopropoxy-3-pyridyl)-2-[(4S)-2,2,4-trimethylpyrrolidin-1-yl]pyridine-3-carboxamide], the EC30 entry is “+++ (“+++” means <3 uM)”. With `Cc1cc(C)c(Oc2nc(-c3cc(F)cc(OC(C)C)c3)ccc2C(=O)NS(=O)(=O)c2cccc(N)n2)c(C)c1` [Compound 1138, N-[(6-amino-2-pyridyl)sulfonyl]-6-(3-fluoro-5-isopropoxy-phenyl)-2-(2,4,6-trimethylphenoxy)pyridine-3-carboxamide], the EC30 entry is on record as “+++ (“+++” means <3 uM)”. Consider `COc1ccc(C#N)cc1-c1ccc(C(=O)NS(=O)(=O)c2cccc(N)n2)c(Oc2c(C)cc(C)cc2C)n1` [Compound 1111, N-[(6-amino-2-pyridyl)sulfonyl]-6-(5-cyano-2-methoxy-phenyl)-2-(2,4,6-trimethylphenoxy)pyridine-3-carboxamide], for which the EC30 entry is listed as “+++ (“+++” means <3 uM)”. For the molecule `CC(C)COc1cc(F)cc(-c2ccc(C(=O)NS(=O)(=O)c3cccc(N)n3)c(N3CC(C)CCC3(C)C)n2)c1` (stereo not shown) [Compound 1995, N-[(6-amino-2-pyridyl)sulfonyl]-6-(3-fluoro-5-isobutoxy-phenyl)-2-(2,2,5-trimethyl-1-piperidyl)pyridine-3-carboxamide], the EC30 entry is reported as “+++ (“+++” means <3 uM)”.

`C[C@@H]1CN(c2nc(-n3ccc(OCC(C)(C)C)n3)ccc2C(=O)NS(=O)(=O)c2cccnc2N)C(C)(C)C1` [Compound 1975, N-[(2-amino-3-pyridyl)sulfonyl]-6-[3-(2,2-dimethylpropoxy)pyrazol-1-yl]-2-[(4S)-2,2,4-trimethylpyrrolidin-1-yl]pyridine-3-carboxamide]: the EC30 result is “+++ (“+++” means <3 uM)”. As to `COc1ccc(OC)c(-c2ccc(C(=O)NS(=O)(=O)c3ccc[nH]c3=O)c(N3C[C@@H](C)CC3(C)C)n2)c1` [Compound 1752, 6-(2,5-dimethoxyphenyl)-N-[(2-oxo-1H-pyridin-3-yl)sulfonyl]-2-[(4S)-2,2,4-trimethylpyrrolidin-1-yl]pyridine-3-carboxamide], the EC30 entry is “++ (“++” means between 3 uM and 10 uM)”. For `COC1CCN(c2nc(-c3cc(F)cc(OCC(C)C)c3)ccc2C(=O)NS(=O)(=O)c2ccn[nH]2)CC1` [Compound 1245, 6-(3-fluoro-5-isobutoxy-phenyl)-2-(4-methoxy-1-piperidyl)-N-(1H-pyrazol-5-ylsulfonyl)pyridine-3-carboxamide], the EC30 entry is reported as “+ (“+” means greater than 10 uM)”.

As to `CCOc1cccc2c1CN(Cc1c(C)cc(C)cc1C)C2(C)C(=O)NS(=O)(=O)c1ccc(O)cc1` (stereo not shown) [Compound 1453, 4-ethoxy-N-(4-hydroxyphenyl)sulfonyl-1-methyl-2-[(2,4,6-trimethylphenyl)methyl]isoindoline-1-carboxamide], the EC30 result is recorded as “+++ (“+++” means <3 uM)”. `CC1CN(c2ncccc2C(=O)NS(=O)(=O)c2cccc(N3CCc4c([nH]c5ccccc45)C3)n2)C(C)(C)C1` (stereo not shown) [Compound 1833, N—[[6-(1,3,4,9-tetrahydropyrido[3,4-b]indol-2-yl)-2-pyridyl]sulfonyl]-2-(2,2,4-trimethylpyrrolidin-1-yl)pyridine-3-carboxamide]: the EC30 result was “+++ (“+++” means <3 uM)”.

Regarding `Cc1cc(C)c(Cn2nc(C(C)(C)C)cc2C(=O)NS(=O)(=O)c2cccnc2N)c(C)c1` [Compound 1106, N-[(2-amino-3-pyridyl)sulfonyl]-5-tert-butyl-2-[(2,4,6-trimethylphenyl)methyl]pyrazole-3-carboxamide], the EC30 result is reported as “+ (“+” means greater than 10 uM)”.

For `CCOc1cccc2c1CN(Cc1c(C)cc(C)cc1C)C2(C)C(=O)NS(=O)(=O)c1ccc(F)c(N)c1` (stereo not shown) [Compound 1394, N-(3-amino-4-fluoro-phenyl)sulfonyl-4-ethoxy-1-methyl-2-[(2,4,6-trimethylphenyl)methyl]isoindoline-1-carboxamide], the EC30 result is given as “+++ (“+++” means <3 uM)”. Next, `Cc1cc(C)c(Oc2nc(-c3cnc(N4CCCC4)nc3)ccc2C(=O)NS(=O)(=O)c2cccc(N)n2)c(C)c1` [Compound 1275, N-[(6-amino-2-pyridyl)sulfonyl]-6-(2-pyrrolidin-1-ylpyrimidin-5-yl)-2-(2,4,6-trimethylphenoxy)pyridine-3-carboxamide]: “+++ (“+++” means <3 uM)”. Under `CC(C)COc1cc(F)cc(-c2ccc(C(=O)NS(=O)(=O)c3cccc(N)n3)c(N(C)C3CC3)n2)c1` [Compound 1117, N-[(6-amino-2-pyridyl)sulfonyl]-2-[cyclopropyl(methyl)amino]-6-(3-fluoro-5-isobutoxy-phenyl)pyridine-3-carboxamide] stands “+++ (“+++” means <3 uM)”; under `Cc1cc(C)c(Oc2nc(-c3cnc(N(C)C)nc3)ccc2C(=O)NS(=O)(=O)c2cccc(N)n2)c(C)c1` [Compound 1139, N-[(6-amino-2-pyridyl)sulfonyl]-6-[2-(dimethylamino)pyrimidin-5-yl]-2-(2,4,6-trimethylphenoxy)pyridine-3-carboxamide], “+++ (“+++” means <3 uM)”. For `CC(C)COc1cc(F)cc(-c2ccc(C(=O)NS(=O)(=O)c3cccc(N)n3)c(OCC3CCCCO3)n2)c1` (stereo not shown) [Compound 1570, N-[(6-amino-2-pyridyl)sulfonyl]-6-(3-fluoro-5-isobutoxy-phenyl)-2-(tetrahydropyran-2-ylmethoxy)pyridine-3-carboxamide], the EC30 result was “+++ (“+++” means <3 uM)”. Take `Cc1cc(C)c(Oc2nc(C(C)(C)C)ccc2C(=O)NS(=O)(=O)c2cccc(NCCN(C)C)n2)c(C)c1` [Compound 947, 6-tert-butyl-N-[[6-(2-dimethylaminoethylamino)-2-pyridyl]sulfonyl]-2-(2,4,6-trimethylphenoxy)pyridine-3-carboxamide]: the EC30 entry is reported as “+++ (“+++” means <3 uM)”. Next, `COc1ncc(-c2ccc(C(=O)NS(=O)(=O)c3cccnc3OC)c(-c3ccc(C)cc3)n2)cc1C` [Compound 861, 6-(6-methoxy-5-methyl-3-pyridyl)-N-[(2-methoxy-3-pyridyl)sulfonyl]-2-(p-tolyl)pyridine-3-carboxamide]: “++ (“++” means between 3 uM and 10 uM)”; `CC[C@H]1CN(c2nc(-c3cc(F)cc(OCC(C)C)c3)ccc2C(=O)NS(=O)(=O)c2cccc(N)n2)C(C)(C)C1` [Compound 1611, N-[(6-amino-2-pyridyl)sulfonyl]-2-[(4R)-4-ethyl-2,2-dimethyl-pyrrolidin-1-yl]-6-(3-fluoro-5-isobutoxy-phenyl)pyridine-3-carboxamide]: “+++ (“+++” means <3 uM)”; `Cn1ccc2c(Cn3nc(C(C)(C)C)cc3C(=O)NS(=O)(=O)c3cccc(N)c3)cccc21` [Compound 927, N-(3-aminophenyl)sulfonyl-5-tert-butyl-2-[(1-methylindol-4-yl)methyl]pyrazole-3-carboxamide]: “++ (“++” means between 3 uM and 10 uM)”.

As for `CC(C)COc1cc(F)cc(-c2ccc(C(=O)NS(=O)(=O)c3ccc(O)cc3)c(N3C[C@@H](C)CC3(C)C)n2)c1` [Compound 1750, 6-(3-fluoro-5-isobutoxy-phenyl)-N-(4-hydroxyphenyl)sulfonyl-2-[(4S)-2,2,4-trimethylpyrrolidin-1-yl]pyridine-3-carboxamide], the EC30 result was “+++ (“+++” means <3 uM)”.

For `Cc1ccc(F)c(-c2ccc(C(=O)NS(=O)(=O)c3ccc[nH]c3=O)c(N3C[C@@H](C)CC3(C)C)n2)c1` [Compound 1946, 6-(2-fluoro-5-methyl-phenyl)-N-[(2-oxo-1H-pyridin-3-yl)sulfonyl]-2-[(4S)-2,2,4-trimethylpyrrolidin-1-yl]pyridine-3-carboxamide], the EC30 entry is given as “+++ (“+++” means <3 uM)”. With `Cc1cc(C)c(Oc2nc(-c3ccc(O)cc3C)ccc2C(=O)NS(=O)(=O)c2cccc(N)n2)c(C)c1` [Compound 1204, N-[(6-amino-2-pyridyl)sulfonyl]-6-(4-hydroxy-2-methyl-phenyl)-2-(2,4,6-trimethylphenoxy)pyridine-3-carboxamide], the EC30 entry was “+ (“+” means greater than 10 uM)”. With `CCc1ccccc1-c1cnc(Oc2c(C)cc(C)cc2C)c(C(=O)NS(=O)(=O)c2cccc(N)n2)c1` [Compound 945, N-[(6-amino-2-pyridyl)sulfonyl]-5-(2-ethylphenyl)-2-(2,4,6-trimethylphenoxy)pyridine-3-carboxamide], the EC30 result is given as “+++ (“+++” means <3 uM)”. Under `CC1(C)CN(c2nccc(C(F)(F)F)c2C(=O)NS(=O)(=O)c2cccc(N)n2)C(C)(C)C1` [Compound 1658, N-[(6-amino-2-pyridyl)sulfonyl]-2-(2,2,4,4-tetramethylpyrrolidin-1-yl)-4-(trifluoromethyl)pyridine-3-carboxamide] stands “++ (“++” means between 3 uM and 10 uM)”; under `COc1cc(-c2ccc(C(=O)NS(=O)(=O)c3cccc(N)n3)c(Oc3c(C)cc(C)cc3C)n2)c(F)cn1` [Compound 1277, N-[(6-amino-2-pyridyl)sulfonyl]-6-(5-fluoro-2-methoxy-4-pyridyl)-2-(2,4,6-trimethylphenoxy)pyridine-3-carboxamide], “+++ (“+++” means <3 uM)”. Under `Cc1ccc(-c2nc3c(cc2C(=O)NS(=O)(=O)c2cccc(N)c2)CCCC3(C)C)cc1` [Compound 1231, (3-aminophenyl)sulfonyl-[8,8-dimethyl-2-(p-tolyl)-6,7-dihydro-5H-quinoline-3-carbonyl]azanide] stands “+++ (“+++” means <3 uM)”; under `Cc1cc(C)c(Oc2nc(C3=CCCCO3)ccc2C(=O)NS(=O)(=O)c2cccc(N)n2)c(C)c1` [Compound 937, N-[(6-amino-2-pyridyl)sulfonyl]-6-(3,4-dihydro-2H-pyran-6-yl)-2-(2,4,6-trimethylphenoxy)pyridine-3-carboxamide], “+++ (“+++” means <3 uM)”; under `Cc1cc(C)c(Oc2nc(C3(C)CC3)ccc2C(=O)NS(=O)(=O)c2cccc(N)n2)c(C)c1` [Compound 1310, N-[(6-amino-2-pyridyl)sulfonyl]-6-(1-methylcyclopropyl)-2-(2,4,6-trimethylphenoxy)pyridine-3-carboxamide], “+++ (“+++” means <3 uM)”.
